# Results published in US12441768B2, “Compositions and methods for treating endometriosis” (EndoMet Biosciences, Inc., priority 2018, dated 2025).
# Where a SMILES comes first, the peptide text is derived from it.
# Experiments:
# [1] = target: Wnt-responsive promoter (TCF/LEF); assay: Wnt-dependent luciferase reporter assay; assay type: cell-based, murine
# Procedure, shortened: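 EC50 (uM) derived from inhibition of luminescence in Wnt3a-stimulated murine 3T3 cells expressing luciferase under a TCF/LEF promoter, with peptides added across a concentration range and vehicle as control.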
# β-catenin = target: T1, β-catenin (Homo sapiens, UniProt P35222); assay: KD50 measurement using competitive fluorescence polarization (FP) with labelled TCF4; assay type: binding; conditions: fluorescence polarization, β-catenin; for Kd: read-out: β-Cat FP KD
# T1 sequence (P35222 1-781): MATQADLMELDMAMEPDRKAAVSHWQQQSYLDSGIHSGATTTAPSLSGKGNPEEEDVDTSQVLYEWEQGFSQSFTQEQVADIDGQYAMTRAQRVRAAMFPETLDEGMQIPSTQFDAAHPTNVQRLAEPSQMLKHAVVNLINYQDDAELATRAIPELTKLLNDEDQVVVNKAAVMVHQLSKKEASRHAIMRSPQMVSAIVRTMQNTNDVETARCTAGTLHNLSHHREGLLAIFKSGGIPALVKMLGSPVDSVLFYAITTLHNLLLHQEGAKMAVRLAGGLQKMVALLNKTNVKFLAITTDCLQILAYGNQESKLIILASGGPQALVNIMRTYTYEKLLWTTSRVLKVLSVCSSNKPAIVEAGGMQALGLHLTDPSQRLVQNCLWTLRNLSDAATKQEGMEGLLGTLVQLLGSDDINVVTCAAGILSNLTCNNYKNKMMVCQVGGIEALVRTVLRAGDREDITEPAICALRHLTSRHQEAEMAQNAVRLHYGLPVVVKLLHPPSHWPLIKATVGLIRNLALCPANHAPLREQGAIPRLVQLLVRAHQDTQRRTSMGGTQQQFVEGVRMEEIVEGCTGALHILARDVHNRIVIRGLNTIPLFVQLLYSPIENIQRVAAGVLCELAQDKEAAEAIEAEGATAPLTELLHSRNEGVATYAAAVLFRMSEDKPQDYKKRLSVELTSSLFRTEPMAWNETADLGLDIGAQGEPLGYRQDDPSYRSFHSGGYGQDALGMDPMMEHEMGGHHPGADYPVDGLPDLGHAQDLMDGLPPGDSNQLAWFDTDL
# Procedure, shortened: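 Competitive FP in which unlabelled inhibitor (10 nM to 30 uM dilution series) displaces 5 nM labelled TCF4 from 100 nM β-catenin, room temperature. Read-out ex 470 nm, em 520 nm; experiment repeated three times.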
# [2] = % Viability non-Wnt responsive cells
EC50 [1],β-Cat FP Hill slope (β-catenin),Kd (β-catenin),Structure (SMILES),viability [2]
> 30 µM,0.7,1000 to 10000 nM,CC[C@H](C)[C@H](NC(=O)[C@H](CC(C)C)NC(=O)[C@@H](NC(=O)[C@H](Cc1c[nH]c2ccccc12)NC(=O)[C@H](CCSC)NC(=O)[C@@H](N)CCCCN)[C@@H](C)CC)C(=O)N[C@@H](CS)C(=O)N[C@@H](Cc1ccccc1)C(=O)N[C@@H](Cc1c[nH]c2ccccc12)C(=O)NCC(=O)O [compound 113] (H-KMWILICFWG-OH),102%
< 7.5 µM,1.07,< 400 nM,CC[C@H](C)[C@H](NC(=O)[C@H](CC(C)C)NC(=O)[C@@H](NC(=O)[C@H](Cc1c[nH]c2ccccc12)NC(=O)[C@H](CCSC)NC(=O)[C@@H](N)Cc1c[nH]cn1)[C@@H](C)CC)C(=O)N[C@@H](CO)C(=O)N[C@@H](Cc1ccccc1)C(=O)N[C@@H](Cc1c[nH]c2ccccc12)C(=O)NCC(=O)O [compound 123] (H-HMWILISFWG-OH),107%
> 30 µM,1.64,< 400 nM,CC[C@H](C)[C@H](NC(=O)[C@H](CC(C)C)NC(=O)[C@H](Cc1ccccc1)NC(=O)[C@H](Cc1c[nH]c2ccccc12)NC(=O)[C@H](CCSC)NC(=O)[C@H](CCCNC(=N)N)NC(=O)[C@H](CO)NC(=O)[C@@H](N)CCSC)C(=O)N[C@@H](CO)C(=O)N[C@@H](Cc1ccccc1)C(=O)N[C@@H](CCCNC(=N)N)C(=O)NCC(=O)O [compound 69] (H-MSRMWFLISFRG-OH),99.7%
7.5 to 15 µM,0.7,1000 to 10000 nM,CC[C@H](C)[C@H](NC(=O)[C@H](CC(C)C)NC(=O)[C@H](Cc1ccccc1)NC(=O)[C@H](Cc1c[nH]c2ccccc12)NC(=O)[C@@H](NC(=O)[C@H](CCCNC(=N)N)NC(=O)[C@H](CO)NC(=O)[C@@H](N)CCSC)C(C)C)C(=O)N[C@@H](CO)C(=O)N[C@@H](Cc1ccccc1)C(=O)N[C@@H](Cc1c[nH]c2ccccc12)C(=O)NCC(=O)O [compound 64] (H-MSRVWFLISFWG-OH),104%
< 7.5 µM,0.7,400 to 1000 nM,CCCC[C@H](N)C(=O)N[C@@H](Cc1c[nH]c2ccccc12)C(=O)N[C@@H](Cc1ccccc1)C(=O)N[C@@H](CC(C)C)C(=O)N[C@H](C(=O)N[C@@H](CS)C(=O)N[C@@H](Cc1ccccc1)C(=O)N[C@@H](Cc1c[nH]c2ccccc12)C(=O)NCC(=O)O)[C@@H](C)CC [compound 164] (HELM PEPTIDE1{[Nle].W.F.L.I.C.F.W.G}$$$$V2.0),100%
> 30 µM,,> 30000 nM,CC[C@H](C)[C@H](NC(=O)[C@H](Cc1c[nH]c2ccccc12)NC(=O)[C@@H](N)CCSC)C(=O)NC(C)(CC(C)C)C(=O)N[C@H](C(=O)N[C@@H](CO)C(=O)N[C@@H](Cc1ccccc1)C(=O)N[C@@H](Cc1c[nH]c2ccccc12)C(=O)NCC(=O)O)[C@@H](C)CC (some centres unmarked) [compound 138] (HELM PEPTIDE1{M.W.I.[CC(C)CC(C)(N[*:1])C(=O)[*:2]].I.S.F.W.G}$$$$V2.0),106%
7.5 to 15 µM,3,1000 to 10000 nM,CC[C@H](C)[C@H](NC(=O)[C@H](CC(C)C)NC(=O)[C@H](Cc1ccccc1)NC(=O)[C@@H](N)Cc1c[nH]c2ccccc12)C(=O)N[C@@H](CO)C(=O)N[C@@H](Cc1ccc(O)cc1)C(=O)N[C@@H](Cc1c[nH]c2ccccc12)C(=O)O [compound 109] (H-WFLISYW-OH),103%
< 7.5 µM,2.99,400 to 1000 nM,CC[C@H](C)[C@H](NC(=O)[C@H](CC(C)C)NC(=O)[C@H](Cc1ccccc1)NC(=O)[C@H](Cc1c[nH]c2ccccc12)NC(C)=O)C(=O)N[C@@H](CO)C(=O)N[C@@H](Cc1ccccc1)C(=O)N[C@@H](Cc1c[nH]c2ccccc12)C(=O)NCC(=O)O [compound 220] (Ac-WFLISFWG-OH),93.2%
7.5 to 15 µM,,> 30000 nM,"CC[C@H](C)[C@@H]1NC(=O)[C@H](CC(C)C)NC(=O)[C@H](Cc2ccccc2)NC(=O)[C@H](Cc2c[nH]c3ccccc23)NC(=O)[C@H](CCSC)NC(=O)[C@@H](N)CC(=O)NCCCC[C@@H](C(=O)NCC(=O)O)NC(=O)[C@H](Cc2c[nH]c3ccccc23)NC(=O)[C@H](Cc2ccccc2)NC(=O)[C@H](CS)NC1=O [compound 177] (HELM PEPTIDE1{D.M.W.F.L.I.C.F.W.K.G}$PEPTIDE1,PEPTIDE1,1:R3-10:R3$$$V2.0)",98.6%
< 7.5 µM,1.33,< 400 nM,"CC[C@H](C)[C@@H]1NC(=O)[C@H](CC(C)C)NC(=O)[C@H](Cc2ccccc2)NC(=O)[C@H](Cc2c[nH]c3ccccc23)NC(=O)[C@H](CCSC)NC(=O)CCCCCNC(=O)C[C@@H](C(=O)O)NC(=O)[C@H](Cc2c[nH]c3ccccc23)NC(=O)[C@H](C)NC(=O)[C@H](CS)NC1=O [compound 192] (HELM PEPTIDE1{[O=C(CCCCCN[*:1])[*:2]].M.W.F.L.I.C.A.W.D}$PEPTIDE1,PEPTIDE1,1:R1-10:R3$$$V2.0)",103%
> 30 µM,,> 30000 nM,CC[C@H](C)[C@H](NC(=O)[C@H](CC(C)C)NC(=O)[C@H](Cc1ccccc1)NC(=O)[C@H](Cc1c[nH]c2ccccc12)NC(=O)[C@H](CCCNC(=N)N)NC(=O)[C@H](CCCNC(=N)N)NC(=O)[C@H](CO)NC(=O)[C@@H](N)CCSC)C(=O)N[C@@H](CO)C(=O)N[C@@H](Cc1ccccc1)C(=O)N[C@@H](Cc1c[nH]c2ccccc12)C(N)=O [compound 75] (H-MSRRWFLISFW-NH2),99.2%
7.5 to 15 µM,,> 30000 nM,CC[C@H](C)[C@H](NC(=O)[C@H](CC(C)C)NC(=O)[C@H](Cc1ccccc1)NC(=O)[C@H](Cc1c[nH]c2ccccc12)NC(=O)[C@@H](NC(=O)[C@H](CCCNC(=N)N)NC(=O)[C@H](CO)NC(=O)[C@@H](N)CCSC)[C@@H](C)O)C(=O)N[C@@H](CO)C(=O)N[C@@H](Cc1ccccc1)C(=O)N[C@@H](Cc1c[nH]c2ccccc12)C(=O)NCC(=O)O [compound 48] (H-MSRTWFLISFWG-OH),101%
7.5 to 15 µM,0.7,1000 to 10000 nM,"CC[C@H](C)[C@@H]1NC(=O)[C@H](CC(C)C)NC(=O)[C@H](Cc2ccccc2)NC(=O)[C@H](Cc2c[nH]c3ccccc23)NC(=O)[C@H](CCSC)NC(=O)[C@@H](N)CCCCNC(=O)C[C@@H](C(=O)O)NC(=O)[C@H](Cc2c[nH]c3ccccc23)NC(=O)[C@H](C)NC(=O)[C@H](CS)NC1=O [compound 167] (HELM PEPTIDE1{K.M.W.F.L.I.C.A.W.D}$PEPTIDE1,PEPTIDE1,1:R3-10:R3$$$V2.0)",98.8%
7.5 to 15 µM,1.56,1000 to 10000 nM,CC[C@H](C)[C@H](NC(=O)[C@H](CC(C)C)NC(=O)[C@@H](NC(=O)[C@H](Cc1c[nH]c2ccccc12)NC(=O)[C@H](CCSC)NC(C)=O)[C@@H](C)CC)C(=O)N[C@@H](CO)C(=O)N[C@@H](Cc1ccccc1)C(=O)N[C@@H](Cc1c[nH]c2ccccc12)C(=O)NCC(=O)OC [compound 222] (HELM PEPTIDE1{[ac].M.W.I.L.I.S.F.W.G.[CO[*:1]]}$$$$V2.0),98.2%
> 30 µM,,> 30000 nM,CC[C@H](C)[C@H](NC(=O)[C@H](CC(C)C)NC(=O)[C@H](Cc1ccccc1)NC(=O)[C@H](Cc1c[nH]c2ccccc12)N(C)C(=O)[C@H](CCSC)NC(=O)[C@H](CCCNC(=N)N)NC(=O)[C@@H](NC(=O)[C@@H](N)CCSC)[C@@H](C)CC)C(=O)N[C@@H](CO)C(=O)N[C@@H](Cc1ccccc1)C(=O)N[C@@H](Cc1c[nH]c2ccccc12)C(=O)NCC(=O)O [compound 53] (HELM PEPTIDE1{M.I.R.M.[meW].F.L.I.S.F.W.G}$$$$V2.0),103%
< 7.5 µM,1.47,< 400 nM,CC[C@H](C)[C@H](NC(=O)[C@H](CC(C)C)NC(=O)[C@@H](NC(=O)[C@H](Cc1c[nH]c2ccccc12)NC(=O)[C@H](CCSC)NC(C)=O)C1CCCCC1)C(=O)N[C@@H](CO)C(=O)N[C@@H](Cc1ccccc1)C(=O)N[C@@H](Cc1c[nH]c2ccccc12)C(=O)NCC(=O)O [compound 217] (HELM PEPTIDE1{[ac].M.W.[O=C([C@@H](N[*:1])C1CCCCC1)[*:2]].L.I.S.F.W.G}$$$$V2.0),87.9%
